{"source": "ChEMBL document CHEMBL1765050", "about": "“Cyclopropyl and isopropyl derivatives of 11-cis and 9-cis retinals at C-9 and C-13: subtle steric differences with major effects on ligand efficacy in rhodopsin” (J Nat Prod, 2011)", "data": [{"molecular_target": "Rhodopsin (Bos taurus) (UniProt P02699)", "sequence (P02699 whole entry)": "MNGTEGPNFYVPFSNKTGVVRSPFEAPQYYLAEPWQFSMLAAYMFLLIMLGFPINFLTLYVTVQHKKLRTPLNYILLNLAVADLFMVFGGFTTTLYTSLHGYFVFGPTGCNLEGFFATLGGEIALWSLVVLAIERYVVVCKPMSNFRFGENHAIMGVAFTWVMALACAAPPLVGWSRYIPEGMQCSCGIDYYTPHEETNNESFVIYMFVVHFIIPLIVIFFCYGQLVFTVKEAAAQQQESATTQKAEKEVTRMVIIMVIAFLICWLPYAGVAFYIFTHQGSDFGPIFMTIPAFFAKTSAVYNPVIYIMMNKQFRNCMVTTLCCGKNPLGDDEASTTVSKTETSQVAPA", "experiment": "Agonist activity at bovine rhodopsin assessed as opsin mediated cognate G protein transducer activation by fluorescence assay", "format": "functional", "set-up": "concentration or dose not given beside the values", "units": {"Activity": "%"}, "values": [{"smiles": "CC1=C(/C=C/C(C)=C\\C=C\\C(C)=C\\C=O)C(C)(C)CCC1", "Activity": 104}, {"smiles": "CC1=C(/C=C/C(C)=C\\C=C\\C(=C\\C=O)C(C)C)C(C)(C)CCC1", "Activity": 139}, {"smiles": "CC1=C(/C=C/C(=C/C=C\\C(C)=C\\C=O)C2CC2)C(C)(C)CCC1", "Activity": 83}, {"smiles": "CC1=C(/C=C/C(C)=C\\C=C\\C(=C\\C=O)C2CC2)C(C)(C)CCC1", "Activity": 53}, {"smiles": "CC1=C(/C=C/C(=C\\C=C\\C(C)=C\\C=O)C2CC2)C(C)(C)CCC1", "Activity": 60}, {"smiles": "CC1=C(/C=C/C(C)=C/C=C\\C(C)=C\\C=O)C(C)(C)CCC1", "Activity": 100}]}]}
